This experiment deals with T1, human ALK5 (Homo sapiens, UniProt P36897).
T1 construct: human ALK5 (recombinant TGF β1 N-term GST-tagged, 80-end); GST (N); purchased
T1 sequence (P36897 80-503 limits assumed): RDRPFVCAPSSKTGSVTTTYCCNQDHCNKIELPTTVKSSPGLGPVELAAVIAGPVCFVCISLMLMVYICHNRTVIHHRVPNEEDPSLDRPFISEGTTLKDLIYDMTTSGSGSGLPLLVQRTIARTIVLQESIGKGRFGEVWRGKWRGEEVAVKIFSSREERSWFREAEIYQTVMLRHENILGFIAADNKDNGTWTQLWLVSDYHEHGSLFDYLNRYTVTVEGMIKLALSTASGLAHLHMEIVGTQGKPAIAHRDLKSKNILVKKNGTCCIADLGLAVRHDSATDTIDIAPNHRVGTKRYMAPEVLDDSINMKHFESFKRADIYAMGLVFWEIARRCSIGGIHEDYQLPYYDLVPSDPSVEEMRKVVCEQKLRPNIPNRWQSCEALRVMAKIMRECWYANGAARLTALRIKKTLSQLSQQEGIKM
Description: ADP-GLO Kinases assay of ALK5 enzymatic activity. It counts as biochemical. Particulars: purified recombinant human ALK5, TGFβ1 peptide substrate, pIC50 converted to pKi by Cheng-Prusoff, high ATP protocol (15 μM) for very potent compounds, 25° C. In short, it runs like this:
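Purified ALK5 preincubated 15 min with compound, then reacted with substrate and ATP; ADP formed read by ADP-Glo luminescence after 120 min or 60 min reaction, all steps at 25° C. 11-point concentration-response; pIC50 converted to pKi via Cheng-Prusoff.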

The structures appear in SMILES notation. Counter-ions that a name gives are not always drawn.

Turning to `C[N+](C)(C)CCCOc1nnc(-c2cc(Cl)ccc2F)cc1Nc1ccnc(NC(=O)C2CC2)c1` [Example 58, (3-{[6-(5-chloro-2-fluorophenyl)-4-[(2-cyclopropaneamidopyridin-4-yl)amino]pyridazin-3-yl]oxy}propyl)trimethylazanium chloride], the Ki was 398 to 3160 pM.

On to `CSc1nnc(-c2cc(Cl)ccc2F)cc1Nc1ccnc(NC(=O)CCN2CCN(C)CC2)c1` [Example 16, N-(4-{[6-(5-chloro-2-fluorophenyl)-3-(methylsulfanyl)pyridazin-4-yl]amino}pyridin-2-yl)-3-(4-methylpiperazin-1-yl)propanamide], for which the Ki was no more than 100 pM.

On to `CN1CCN(CCC(=O)Nc2cc(Nc3cc(-c4cc(Cl)ccc4F)nnc3N3CCO[C@@H](C(=O)O)C3)ccn2)CC1` (stereo in doubt) [Example 134, 4-[6-(5-chloro-2-fluorophenyl)-4-({2-[3-(4-methylpiperazin-1-yl)propanamido]pyridin-4-yl}amino)pyridazin-3-yl]morpholine-2-carboxylate lithium salt], for which the inhibitory constant (Ki) was 126 to 316 pM.

For the compound `C[C@@H]1CN([C@H]2C[C@H](C(=O)Nc3cc(Nc4cc(-c5cc(Cl)ccc5F)nnc4N(C)CC4(C)CCOC4=O)ncn3)C2)C[C@H](C)N1` (mixture of isomers) [Example 185, N-(6-{[6-(5-chloro-2-fluorophenyl)-3-{methyl[(3-methyl-2-oxooxolan-3-yl)methyl]amino}pyridazin-4-yl]amino}pyrimidin-4-yl)-3-(3,5-dimethylpiperazin-1-yl)cyclobutane-1-carboxamide], the inhibition constant Ki was no more than 100 pM.

`CN1CCN(CCC(=O)Nc2cc(Nc3cc(-c4cc(Cl)ccc4F)nnc3OCCO)ccn2)CC1` [Example 1, N-(4-{[6-(5-chloro-2-fluorophenyl)-3-(2-hydroxyethoxy)pyridazin-4-yl]amino}pyridin-2-yl)-3-(4-methylpiperazin-1-yl)propanamide]: the Ki is no more than 100 pM.

Take `CN1CCN(CCC(=O)Nc2cc(Nc3cc(-c4cc(Cl)ccc4F)nnc3N(C)C3CCOC3)ccn2)CC1` (racemic) [Example 105, N-(4-{[6-(5-chloro-2-fluorophenyl)-3-[methyl(oxolan-3-yl)amino]pyridazin-4-yl]amino}pyridin-2-yl)-3-(4-methylpiperazin-1-yl)propanamide]: the Ki was no more than 100 pM.

Turning to `CN1C2CC1CN([C@H]1C[C@@H](C(=O)Nc3cc(Nc4cc(-c5cc(Cl)ccc5F)nnc4SCCO)ccn3)C1)C2` [Example 175, Cis N-(4-{[6-(5-chloro-2-fluorophenyl)-3-[(2-hydroxyethyl)sulfanyl]pyridazin-4-yl]amino}pyridin-2-yl)-3-{6-methyl-3,6-diazabicyclo[3.1.1]heptan-3-yl}cyclobutane-1-carboxamide], the Ki was no more than 100 pM.

`CN1CCN([C@H]2C[C@@H](C(=O)Nc3cc(Nc4cc(-c5cc(Cl)ccc5F)nnc4OCc4cccc(O)c4)ccn3)C2)CC1` [Example 119, Cis N-(4-{[6-(5-chloro-2-fluorophenyl)-3-[(3-hydroxyphenyl)methoxy]pyridazin-4-yl]amino}pyridin-2-yl)-3-(4-methylpiperazin-1-yl)cyclobutane-1-carboxamide]: the Ki was no more than 100 pM.

For `CN1CCN(CCC(=O)Nc2cc(Nc3cc(-c4cc(Cl)ccc4F)nnc3O[C@H]3C[C@@H](CO)C3)ccn2)CC1` [Example 80, N-(4-{[6-(5-chloro-2-fluorophenyl)-3-[3-(hydroxymethyl)cyclobutoxy]pyridazin-4-yl]amino}pyridin-2-yl)-3-(4-methylpiperazin-1-yl)propanamide], the Ki is no more than 100 pM.

With `CN1CCN(CCC(=O)Nc2cc(Nc3cc(-c4cc(Cl)ccc4F)nnc3OCCCS(C)(=O)=O)ccn2)CC1` [Example 7, N-(4-{[6-(5-chloro-2-fluorophenyl)-3-(3-methanesulfonylpropoxy)pyridazin-4-yl]amino}pyridin-2-yl)-3-(4-methylpiperazin-1-yl)propanamide], the Ki is no more than 100 pM.

On to `CN1CCN([C@H]2C[C@@H](C(=O)Nc3cc(Nc4cc(-c5cc(Cl)ccc5F)nnc4OC[C@H]4C[C@@](C)(O)C4)ccn3)C2)CC1` [Example 124, Cis N-(4-{[6-(5-chloro-2-fluorophenyl)-3-[(3-hydroxy-3-methylcyclobutyl)methoxy]pyridazin-4-yl]amino}pyridin-2-yl)-3-(4-methylpiperazin-1-yl)cyclobutane-1-carboxamide], for which the inhibitory constant (Ki) was no more than 100 pM.

Regarding `O=C(CN1CCCNCC1)Nc1cc(Nc2cc(-c3cc(Cl)ccc3F)nnc2SCCO)ccn1` [Example 61, N-(4-{[6-(5-chloro-2-fluorophenyl)-3-[(2-hydroxyethyl)sulfanyl]pyridazin-4-yl]amino}pyridin-2-yl)-2-(1,4-diazepan-1-yl)acetamide], the inhibitory constant (Ki) was no more than 100 pM.

In the case of `COc1nnc(-c2cc(Cl)ccc2F)cc1Nc1ccnc(NC(=O)CCN2CCN(C)CC2)c1` [Example 47, N-(4-{[6-(5-chloro-2-fluorophenyl)-3-methoxypyridazin-4-yl]amino}pyridin-2-yl)-3-(4-methylpiperazin-1-yl)propanamide], the Ki is no more than 100 pM.

Take `O=C(Nc1cc(Nc2cc(-c3cc(Cl)ccc3F)nnc2SCCO)ccn1)[C@H]1C[C@@H](N2CCSCC2)C1` [Example 89, Cis N-(4-{[6-(5-chloro-2-fluorophenyl)-3-[(2-hydroxyethyl)sulfanyl]pyridazin-4-yl]amino}pyridin-2-yl)-3-(thiomorpholin-4-yl)cyclobutane-1-carboxamide]: the inhibitory constant (Ki) was no more than 100 pM.

On to `CN1CCN(CCC(=O)Nc2cc(Nc3cc(-c4cc(Cl)ccc4F)nnc3OCCN)ccn2)CC1` [Example 8, N-(4-{[3-(2-aminoethoxy)-6-(5-chloro-2-fluorophenyl)pyridazin-4-yl]amino}pyridin-2-yl)-3-(4-methylpiperazin-1-yl)propanamide], for which the inhibition constant Ki was 126 to 316 pM.

These data come from US20250011299A1, “PYRIDAZINYL AMINO DERIVATIVES AS ALK5 INHIBITORS” (CHIESI FARMACEUTICI S.P.A., priority 2021, published 2025).
